Assay results taken from patent US10857139B2, “Substituted diazaspiroalkanes as androgen receptor modulators” (The Regents of the University of California, priority 2006, dated 2020).

Experiments:
[1] = tested on: androgen receptor (AR); assay: Secreted PSA induced by R1881 in hormone refractory (HR) LNCaP/AR cells (PSA ELISA); assay type: cell-based; details: FIG. 3, R1881, 5 days incubation
[2] = Solubility in ethanol; assay type: physicochemical
Text: (§1) When administered to mice, hardening of the skin and skin irritation around the injection site was observed, and this was attributed to the use of DMSO.

[3] = Stability of the compounds in vivo with ethanol as solvent; details: mice
Text: as §1

[4] = tested on: LNCaP cells; assay: MTS assay, growth inhibition of HS cancer cells; assay type: cell-based; details: FIG. 2
Protocol: The biological activity of the compound of formula II was measured by secreted levels of prostate specific antigen (PSA). It is well established that PSA levels are indicators of AR activities in prostate cancer. […] After 5 days of incubation, secreted PSA levels were assayed using PSA ELISA kits (American Qualex, San Clemente, Calif.) (See FIG. 1 and FIG. 3). The MTS assay was also used to examine the growth inhibition of the compounds of formula II (See FIG. 2).

[5] = Stability of intravenous formulation (DMSO/PBS solution) at room temperature; assay type: physicochemical; details: 10-25% DMSO, balance PBS
Protocol: A compound presently disclosed, for example, compound A51 or A52, can be in a formulation suitable for intravenous dosing. In an embodiment, the compound is dissolved in from about 10% to about 25% dimethylsulfoxide (DMSO). 1× phosphate buffered saline (PBS) is then mixed into the solution as the balance, and the solution is sonicated with a water bath sonicator until it is homogeneous.
At a compound concentration of 1.5 mg/mL, 5 minutes of sonication may be sufficient to dissolve the compound. At a compound concentration of 2 mg/ml, more than 5 minutes of sonication may be required to dissolve the compound and a polyethylene glcyol can be added to keep the compound in suspension. For example, 5 to 40% PEG-400 (a polyethylene glycol), such as, 5-10% PEG-400, can be added.

[6] = Suspension stability of oral formulation (DMSO/CMC/Tween 80/water); assay type: physicochemical; details: oral formulation: DMSO, CMC, Tween 80, water; about 1.5 mg/mL
Protocol: In an embodiment, the compound is dissolved in 100% DMSO.
Additional chemicals can be added, such as a carboxymethylcellulose, a polysorbate, or water. […] The solution is mechanically homogenized for at least 30 seconds.
That is, more than 10% DMSO was not required.

[7] = tested on: LNCaP-AR tumors; assay: LNCaP-AR xenograft tumor growth in SCID mice; assay type: in vivo; details: for effect on tumors in an in vivo assay: administered as described (iv or oral formulation); for effect on tumor: daily dose of 1 mg/kg; for effect on tumor / tumor cytotoxicity / tumor growth: SCID mice; for tumor cytotoxicity: daily dose of 25-50 mg/kg; for tumor growth: daily oral dose of 10 mg/kg
Protocol: All animal experiments were performed in compliance with the guidelines of the Animal Research Committee of the University of California at Los Angeles. Animals were bought from Taconic and maintained in a laminar flow tower in a defined flora colony. LNCaP-AR and LNCaP-vector cells were maintained in RPMI medium supplemented with 10% FBS. 10^6 cells in 100 μl of 1:1 Matrigel to RPMI medium were injected subcutaneously into the flanks of intact or castrated male SCID mice. Tumor size was measured weekly in three dimensions (length×width×depth) using calipers. Mice were randomized to treatment groups when tumor size reached approximately 100 mm^3. Drugs were given orally everyday at the dose of 10 mg/kg.
Other doses were also tried.
Prostate cancer cell lines were used for xenografts. For example, a LNCaP xenograft, LAPC4 xenograft, LAPC9 xenograft, and xenografts of the hormone refractory counterparts of these cell lines were made. Other cell lines included V-cap, CWR22 and LAPC4 cell lines. Two cell lines that over express the androgen receptor were generated, LNCaP AR and LAPC4 AR. […] Under androgen ablation, the LNCaP AR and LAPC4 AR lines continued to grow, thus behaving like hormone refractory cells.
CB17 SCID mice were used in the study.
Injections were made subcutaneously on the right flank of the mouse. […] In addition, because of the usage of Matrigel, injection of no more than 200 μl was found appropriate. Injection of 100-200 μl was found appropriate. Injecting too large a volume created leakage upon needle withdrawal.

[8] = biological target: T1, androgen receptor (AR) (Homo sapiens, UniProt P10275, T878A); assay: Secreted PSA induced by R1881 in hormone sensitive (HS) LNCaP cells (PSA ELISA); assay type: cell-based; details: FIG. 1, R1881, 5 days incubation
T1 construct: endogenous in cells; host or cells: LNCaP cells
T1 sequence (P10275 1-920 T878A): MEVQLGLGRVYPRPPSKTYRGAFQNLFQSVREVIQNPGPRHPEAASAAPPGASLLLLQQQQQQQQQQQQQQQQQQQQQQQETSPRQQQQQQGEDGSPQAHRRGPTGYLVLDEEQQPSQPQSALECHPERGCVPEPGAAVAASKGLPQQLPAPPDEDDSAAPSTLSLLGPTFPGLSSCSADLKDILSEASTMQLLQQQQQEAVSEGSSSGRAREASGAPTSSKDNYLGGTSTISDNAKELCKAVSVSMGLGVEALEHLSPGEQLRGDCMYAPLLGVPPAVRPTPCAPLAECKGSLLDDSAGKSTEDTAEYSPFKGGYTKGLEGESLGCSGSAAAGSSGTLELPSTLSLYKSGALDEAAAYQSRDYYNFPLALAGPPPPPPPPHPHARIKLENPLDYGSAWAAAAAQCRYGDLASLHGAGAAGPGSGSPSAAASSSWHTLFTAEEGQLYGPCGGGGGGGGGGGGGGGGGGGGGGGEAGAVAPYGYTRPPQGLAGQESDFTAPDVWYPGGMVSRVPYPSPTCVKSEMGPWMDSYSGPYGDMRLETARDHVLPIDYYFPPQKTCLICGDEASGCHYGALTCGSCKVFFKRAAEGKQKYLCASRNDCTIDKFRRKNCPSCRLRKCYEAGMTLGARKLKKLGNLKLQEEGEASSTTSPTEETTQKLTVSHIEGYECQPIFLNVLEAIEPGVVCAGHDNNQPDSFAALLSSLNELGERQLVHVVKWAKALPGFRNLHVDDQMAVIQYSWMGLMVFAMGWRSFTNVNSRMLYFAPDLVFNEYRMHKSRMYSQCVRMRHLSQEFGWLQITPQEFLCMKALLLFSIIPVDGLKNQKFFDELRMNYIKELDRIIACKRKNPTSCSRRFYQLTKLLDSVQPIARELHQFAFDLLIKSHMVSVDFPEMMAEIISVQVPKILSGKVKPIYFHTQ

solubility in ethanol [2] | effect of ethanol on stability of the compounds in vivo [3] | time the compound stays in suspension [6] | antagonist effect on HS cancer cells (secreted PSA) [8] | SMILES | antagonist effect on HR cancer cells (secreted PSA) [1] | antagonist effect on HS cancer cells (MTS growth inhibition) [4] | stability of solution [5] | effect on tumors in an in vivo assay [7] | effect on tumor [7] | tumor cytotoxicity [7] | tumor growth [7] | Luciferase activity ([7]; FIG. 6, after 17 days of treatment)
soluble in ethanol | reduce the stability | only a couple of hours | antagonist effect | Cc1ccc(N2C(=S)N(c3cnc(C#N)c(C(F)(F)F)c3)C(=O)C23CCC3)cc1 [A51, 5-(8-oxo-6-thioxo-5-(4-methylphenyl)-5,7-diazaspiro[3.4]oct-7yl)-3-trifluoromethylpyridine-2-carbonitrile] | antagonist effect | antagonist effect | stable at room temperature for at least a week | beneficial effect on tumors | mild effect | some tumor cytotoxicity | completely retard tumor growth | 
soluble in ethanol | reduce the stability | only a couple of hours |  | CNC(=O)c1ccc(N2C(=S)N(c3cnc(C#N)c(C(F)(F)F)c3)C(=O)C23CCC3)cc1F [A52, 4-[7-(6-cyano-5-trifluoromethylpyridin-3-yl)-8-oxo-6-thioxo-5,7-diazaspiro[3,4]oct-5-yl]-2-fluoro-N-methylbenzamide] |  | antagonist effect | stable at room temperature for at least a week | beneficial effect on tumors | mild effect | some tumor cytotoxicity | completely retard tumor growth | disappearance of Luciferase activity
